In patent US20240270741A1 (Cogent Biosciences, Inc., priority 2023, published 2024) one finds IC50 data, which are given here for 29 compounds.

For the first assay, the target named is FGFR2 (Homo sapiens, UniProt P21802). In words: FGFR wild type enzyme assay (HTRF KinEASE-TK), FGFR2. The settings on record: Enz FGFR2 (nM).
Chain of FGFR2 (P21802 399-821 limits assumed): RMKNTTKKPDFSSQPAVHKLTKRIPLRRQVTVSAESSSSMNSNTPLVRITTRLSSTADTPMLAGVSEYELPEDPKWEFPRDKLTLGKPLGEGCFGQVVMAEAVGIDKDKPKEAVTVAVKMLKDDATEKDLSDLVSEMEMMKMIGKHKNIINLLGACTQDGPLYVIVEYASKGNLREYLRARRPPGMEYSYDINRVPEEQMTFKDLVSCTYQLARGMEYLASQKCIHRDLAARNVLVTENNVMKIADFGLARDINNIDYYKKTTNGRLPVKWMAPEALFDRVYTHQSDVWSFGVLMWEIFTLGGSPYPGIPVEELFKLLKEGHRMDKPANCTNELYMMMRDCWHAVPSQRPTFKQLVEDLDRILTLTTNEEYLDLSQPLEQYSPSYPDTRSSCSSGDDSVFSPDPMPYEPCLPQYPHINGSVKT
Protocol: Activity against FGFR wild type and mutant enzymes were determined in biochemical assays using purified intracellular domains of the respective isoforms using HTRF KinEASE-TK assay technology from CisBio, now PerkinElmer. (Catalogue number 62TK0PEC). Briefly test compounds were tested in 11 point 1:3 serial dilutions, typical final concentration ranges from 10,000 nM to 0.17 nM. Test compounds were dissolved in DMSO and added to assay plates using acoustic transfer. Enzyme was pre-incubated with test compound for 30 minutes and the assay was initiated by addition of ATP and TK-peptide substrate. After 60 minutes at room temperature the reaction was quenched with detection reagent and incubated for an additional 60 minutes at room temperature. The plates were read using a multimode reader and the emission ratio of 665 nm to 615 nm was determined. This ratio was converted to percent of control (POC). [1-(high control-sample signal)/(high control-low control)]*100. Wells without compound were used to determine high control values and wells without enzyme were used to determine low control values. The POC values were fit using a four-parameter logistic model and the value where the fit curve was equal to 50 POC was reported as the IC50 using the Signals Vitro Vivo software package (PerkinElmer). Final assay conditions were: 50 mM HEPES pH7.5, 10 mM MgCl2, 1 mM EDTA, 0.01% Brij-35, 2 mM MnCl2, 1 mM DTT, and 0.5 uM TK-peptide.
In the case of `COCCN1CCC(n2ncc(-c3cc(Sc4ncccc4F)c4c(C#N)cnn4c3)c2C)CC1` [Example 109, 4-[(3-fluoro-2-pyridyl)sulfanyl]-6-[1-[1-(2-methoxyethyl)-4-piperidyl]-5-methyl-pyrazol-4-yl]pyrazolo[1,5-a]pyridine-3-carbonitrile], the IC50 (usually the concentration at which inhibition is half-maximal) came to 2 nM.

As to `Cc1c(-c2cc(Sc3cccc4c3cnn4C)c3c(C#N)cnn3c2)cnn1C1CCN(C)CC1` [Example 133, 4-(1-methylindazol-4-yl)sulfanyl-6-[5-methyl-1-(1-methyl-4-piperidyl)pyrazol-4-yl]pyrazolo[1,5-a]pyridine-3-carbonitrile], 6 nM corresponded to half-maximal inhibition (IC50). This IC50 lies about 3-fold higher than the previous one. Compound `COCCSc1cc(-c2cnn([C@H]3CCCNC3)c2)cn2ncc(C#N)c12` [Example 53, 4-(2-methoxyethylsulfanyl)-6-[1-[(3S)-3-piperidyl]pyrazol-4-yl]pyrazolo[1,5-a]pyridine-3-carbonitrile] registered an IC50 of 3 nM.

The assay is the same for the next values; noted with them: Enz FGFR2 (nM), FGFR2 wild type enzyme.
The compound `Cc1c(-c2cc(Sc3ncccc3F)c3c(C#N)cnn3c2)cnn1C1CCN([C@@H](C)CO)CC1` [Example 146, (S)-4-((3-fluoropyridin-2-yl)thio)-6-(1-(1-(1-hydroxypropan-2-yl)piperidin-4-yl)-5-methyl-1H-pyrazol-4-yl)pyrazolo[1,5-a]pyridine-3-carbonitrile] displayed an IC50 of 2 nM. The compound `Cc1c(-c2cc(Sc3ccccc3C#N)c3c(C#N)cnn3c2)cnn1[C@H]1CC[C@@](C)(O)CC1` [Example 260, 4-(2-cyanophenyl)sulfanyl-6-[1-(4-hydroxy-4-methyl-cyclohexyl)-5-methyl-pyrazol-4-yl]pyrazolo[1,5-a]pyridine-3-carbonitrile] gave an IC50 of 1 nM. Regarding `Cc1c(-c2cc(Sc3ccc(F)cc3C#N)c3c(C#N)cnn3c2)cnn1[C@H]1CC[C@@H](N(C)CCO)CC1` [Example 317, 4-((2-cyano-4-fluorophenyl)thio)-6-(1-((1s,4s)-4-((2-hydroxyethyl)(methyl)ami-no)cyclohexyl)-5-methyl-1H-pyrazol-4-yl)pyrazolo[1,5-a]pyridine-3-carbonitrile], the concentration for half-maximal inhibition (IC50) stood at 0.5 nM. On the same count and under the same terms, in the case of `Cc1c(-c2cc(Sc3ncccc3F)c3c(C#N)cnn3c2)cnn1C1CCN(C[C@H](C)O)CC1` [Example 144, (S)-4-((3-fluoropyridin-2-yl)thio)-6-(1-(1-(2-hydroxypropyl)piperidin-4-yl)-5-methyl-1H-pyrazol-4-yl)pyrazolo[1,5-a]pyridine-3-carbonitrile] it was 1.5 nM; in that of `CC(=O)N(C)[C@H]1CC[C@@H](n2ncc(-c3cc(Sc4ncccc4F)c4c(C#N)cnn4c3)c2C)CC1` [Example 248, N-((1s,4s)-4-(4-(3-cyano-4-((3-fluoropyridin-2-yl)thio)pyrazolo[1,5-a]pyridin-6-yl)-5-methyl-1H-pyrazol-1-yl)cyclohexyl)-N-methylacetamide], 2 nM. Still for that read-out and setting: then `Cc1c(-c2cc(Sc3ccc(F)cc3C#N)c3c(C#N)cnn3c2)cnn1C1CCN(C)CC1` [Example 230, 4-((2-cyano-4-fluorophenyl)thio)-6-(5-methyl-1-(1-methylpiperidin-4-yl)-1H-pyrazol-4-yl)pyrazolo[1,5-a]pyridine-3-carbonitrile], with 1 nM.

Compound `N#Cc1cnn2cc(-c3cnn([C@@H]4CCCNC4)c3)cc(Sc3ncccc3F)c12` [Example 192, (R)-4-((3-fluoropyridin-2-yl)thio)-6-(1-(piperidin-3-yl)-1H-pyrazol-4-yl)pyrazolo[1,5-a]pyridine-3-carbonitrile] showed a half-inhibitory concentration (IC50) of 2 nM. Against the preceding compound, the IC50 is about 2-fold higher.

In the case of `Cc1c(-c2cc(Sc3ccc(F)cc3C#N)c3c(C#N)cnn3c2)cnn1[C@H]1CC[C@@](C)(O)CC1` [Example 324, 4-((2-cyano-4-fluorophenyl)thio)-6-(1-((1s,4s)-4-hydroxy-4-methylcyclohexyl)-5-methyl-1H-pyrazol-4-y)pyrazolo[1,5-a]pyridine-3-carbonitrile], the IC50 is 1 nM. On the same count and under the same terms, then `CC(=O)N1CCO[C@H](Cn2ncc(-c3cc(Sc4ccccc4C#N)c4c(C#N)cnn4c3)c2C)C1` [Example 279, (S)-6-(1-((4-acetylmorpholin-2-yl)methyl)-5-methyl-1H-pyrazol-4-yl)-4-((2-cyanophenyl)thio)pyrazolo [1,5-a]pyridine-3-carbonitrile], with 3 nM.

The assay is the same for the next values; noted with them: Enz FGFR2 (nM), FGFR2 wild type enzyme assay.
On to `N#Cc1ccccc1Sc1cc(-c2cnn([C@@H]3CCC(=O)NC3)c2)cn2ncc(C#N)c12` [Example 622, (R)-4-((2-cyanophenyl)thio)-6-(1-(6-oxopiperidin-3-yl)-1H-pyrazol-4-yl)pyrazolo[1,5-a]pyridine-3-carbonitrile], for which the IC50 turned out to be 0.5 nM. Still for that read-out and setting: then `Cc1c(-c2cc(Sc3ccc(F)cc3C#N)c3c(C#N)cnn3c2)cnn1CC(C)(C)O` [Example 486, 4-((2-cyano-4-fluorophenyl)thio)-6-(1-(2-hydroxy-2-methylpropyl)-5-methyl-1H-pyrazol-4-yl)pyrazolo[1,5-a]pyridine-3-carbonitrile], with 9 nM; and `N#Cc1ccccc1Sc1cc(-c2cnn([C@H]3CCCNC3)n2)cn2ncc(C#N)c12` [Example 463, (S)-4-((2-cyanophenyl)thio)-6-(2-(piperidin-3-yl)-2H-1,2,3-triazol-4-yl)pyrazolo[1,5-a]pyridine-3-carbonitrile], with 6 nM; and `Cc1c(-c2cc(Sc3ccc(F)cc3C#N)c3c(C#N)cnn3c2)cnn1C1CCC(C)(C)NC1` (stereo in doubt) [Example 529, 4-(2-cyano-4-fluoro-phenyl)sulfanyl-6-[1-[(3R)-6,6-dimethyl-3-piperidyl]-5-methyl-pyrazol-4-yl]pyrazolo[1,5-a]pyridine-3-carbonitrile], with 1 nM.

On to `N#Cc1cc(F)ccc1Sc1cc(-c2cn([C@H]3CCCNC3)nn2)cn2ncc(C#N)c12` [Example 460, (S)-4-((2-cyano-4-fluorophenyl)thio)-6-(1-(piperidin-3-yl)-1H-1,2,3-triazol-4-yl)pyrazolo[1,5-a]pyridine-3-carbonitrile], for which inhibition was half-maximal at 6 nM (IC50).

`CC(=O)N1CCC(n2cc(-c3cc(Sc4ccccc4C#N)c4c(C#N)cnn4c3)cn2)CC1` [Example 444, 6-(1-(1-acetylpiperidin-4-yl)-1H-pyrazol-4-yl)-4-((2-cyanophenyl)thio)pyrazolo [1,5-a]pyridine-3-carbonitrile] returned an IC50 of 0.3 nM. Same read-out and setting: in the case of `Cc1c(-c2cc(Sc3ccc(F)cc3C#N)c3c(C#N)cnn3c2)cnn1C1CCN(S(C)(=O)=O)CC1` [Example 403, 4-((2-cyano-4-fluorophenyl)thio)-6-(5-methyl-1-(1-(methylsulfonyl)piperidin-4-yl)-1H-pyrazol-4-yl)pyrazolo[1,5-a]pyridine-3-carbonitrile] it was 2 nM; in that of `CN(C)[C@H]1CC[C@@H](n2cc(-c3cc(Sc4ncccc4F)c4c(C#N)cnn4c3)nn2)CC1` [Example 392, 6-[1-[4-(dimethylamino)cyclohexyl]triazol-4-yl]-4-[(3-fluoro-2-pyridyl)sulfanyl] pyrazolo [1,5-a]pyridine-3-carbonitrile], 12 nM. Same read-out and setting: then `N#Cc1cnn2cc(-c3ccc(N4CCNCC4)nc3)cc(Sc3ncccc3F)c12` [Example 553, 4-((3-fluoropyridin-2-yl)thio)-6-(6-(piperazin-1-yl)pyridin-3-yl)pyrazolo[1,5-a]pyridine-3-carbonitrile], with 1 nM; and `Cc1c(-c2cc(Sc3ncc(F)cc3F)c3c(C#N)cnn3c2)cnn1[C@H]1CCN(C)C(C)(C)C1` [Example 389, (S)-4-((3,5-difluoropyridin-2-yl)thio)-6-(5-methyl-1-(1,2,2-trimethylpiperidin-4-yl)-1H-pyrazol-4-yl)pyrazolo[1,5-a]pyridine-3-carbonitrile], with 5 nM. The same measure, in the same setting: in the case of `COC(=O)N[C@H]1CC[C@@H](n2ncc(-c3cc(Sc4ccc(F)cc4C#N)c4c(C#N)cnn4c3)c2C)CC1` [Example 362, methyl ((1s,4s)-4-(4-(3-cyano-4-((2-cyano-4-fluorophenyl)thio)pyrazolo [1,5-a]pyridin-6-yl)-5-methyl-1H-pyrazol-1-yl)cyclohexyl)carbamate] it was 1 nM; in that of `CC(C)(CO)N1CC[C@H](n2cc(-c3cc(Sc4ncccc4F)c4c(C#N)cnn4c3)cn2)C1` [Example 510, (S)-4-((3-fluoropyridin-2-yl)thio)-6-(1-(1-(1-hydroxy-2-methylpropan-2-yl)pyrrolidin-3-yl)-1H-pyrazol-4-yl)pyrazolo[1,5-a]pyridine-3-carbonitrile], 1 nM. For `Cc1c(-c2cc(Sc3cc(F)ccc3C#N)c3c(C#N)cnn3c2)cnn1C1CCN(C)CC1` [Example 359, 4-((2-cyano-5-fluorophenyl)thio)-6-(5-methyl-1-(1-methylpiperidin-4-yl)-1H-pyrazol-4-yl)pyrazolo[1,5-a]pyridine-3-carbonitrile], the half-inhibitory concentration (IC50) is 1.5 nM. This IC50 lies about 1.5-fold higher than the previous one. Compound `Cc1c(-c2cc(Sc3ccc(F)cc3C#N)c3c(C#N)cnn3c2)cnn1C1CCN([C@H](C)CO)CC1` [Example 381, (R)-4-((2-cyano-4-fluorophenyl)thio)-6-(1-(1-(1-hydroxypropan-2-yl)piperidin-4-yl)-5-methyl-1H-pyrazol-4-yl)pyrazolo[1,5-a]pyridine-3-carbonitrile] displayed an IC50 of 1 nM. The same measure, in the same setting: in the case of `CC(=O)N1CCN(c2ccc(-c3cc(Sc4ncccc4F)c4c(C#N)cnn4c3)cn2)CC1` [Example 555, 6-(6-(4-acetylpiperazin-1-yl)pyridin-3-yl)-4-((3-fluoropyridin-2-yl)thio)pyrazolo[1,5-a]pyridine-3-carbontrile] it was 1 nM; in that of `CN1CCN(c2ccc(-c3cc(Sc4ccc(F)cc4C#N)c4c(C#N)cnn4c3)cn2)CC1=O` [Example 610, 4-((2-cyano-4-fluorophenyl)thio)-6-(6-(4-methyl-3-oxopiperazin-1-yl)pyridin-3-yl)pyrazolo[1,5-a]pyridine-3-carbonitrile], 2 nM.

In the case of `C[C@@H](O)C(=O)N1CCC[C@H](n2cc(-c3cc(Sc4ccccc4C#N)c4c(C#N)cnn4c3)cn2)C1` [Example 590, 4-((2-cyanophenyl)thio)-6-(1-((S)-1-((R)-2-hydroxypropanoyl)piperidin-3-yl)-1H-pyrazol-4-yl)pyrazolo[1,5-a]pyridine-3-carbonitrile], 0.5 nM corresponded to half-maximal inhibition (IC50).
